Reference: article PMC12571071, “Preventing neuropathy and improving anticancer chemotherapy with a carbazole-based compound” (Science Advances, 2025)

Test system: PTX-induced neuropathy
Assay: Rat model of PTX-induced peripheral neuropathy (von Frey, serum NfL, IENFD)
Assay type: in vivo
Experimental: Control animals received an equivalent volume of the vehicle (cremophor EL:ethanol, 1:1) diluted 1:4 in 0.9% NaCl.
Carba1 was injected intraperitoneally six times (50 mg/kg) on days 0, 1, 2, 4, 7, and 9, resulting in a cumulative dose of 300 mg/kg (Fig. 2F). For each injection, Carba1 was injected intraperitoneally at 50 mg/kg on days 0, 1, 2, 4, 7, and 9, for a cumulative dose of 300 mg/kg, using a stock solution (150 mg/ml; cremophor EL:ethanol, 1:1) diluted to 50 mg/ml in 0.9% NaCl. Control animals for Carba1 received the same volume of the vehicle [cremophor EL:ethanol (1:1) diluted 1:3 in 0.9% NaCl]. […] To prevent cross-exposure through feces and urine, treatment groups were randomized by cage, with each cage housing three animals.
Tactile allodynia, a common sensory disorder reported in animal models of CIPN ([56]), was assessed using an electronic von Frey test (Bioseb) ([68]). Rats were placed in plastic compartments on a wire floor and allowed to habituate for 15 min. […] The maximum force (in grams) causing withdrawal was recorded automatically. The average of two measurements, not differing by more than 10 g, was used as the nociceptive threshold ([68]). Rats were habituated to the compartments 3 days before the first injection, and the experimenter was blinded to treatment groups.
Blood samples were collected on day 15 in vials with a clot activator, left at R.T. for up to 1 hour before centrifugation at 4100 rpm at 20°C for 10 min. Serum was then collected, aliquoted, and stored at −80°C until analysis. To reduce batch effects, serum samples were randomized on assay plates. NfL concentration was measured in the serum using commercial kits (Simple Plex Ella ProteinSimple, USA; Rat NfL Kit ProteinSimple) ([27]).
Skin samples from both hind paws were fixed in 4% PFA overnight at 4°C, followed by sucrose cryoprotection (10, 20, and 30%) at 4°C overnight. After embedding in tissue freezing medium, the samples were at −80°C. Sections (20 μm) were cut using a cryostat at −17°C, washed with PBS for 5 min, and dried. The sections were blocked in PBS/0.2% Triton X-100/1%BSA for 1 hour and then incubated overnight at R.T. with anti-PGP9.5 antibody (1:400). After washing with PBS, sections were incubated with goat anti-rabbit Alexa Fluor488 secondary antibody for 2 hours, and the nuclei were stained with DAPI. Imaging was performed by acquiring 0.5 μm Z-stacks and exposure times for DAPI and fluorescein isothiocyanate set to 600 ms. Quantification followed the method described by Lauria et al. ([69]).

[1] = rat serum, day 15, outliers removed

Cc1cc(-n2cccc2)c(C)c2c1[nH]c1ccc(Cl)cc12 [Compound 1]
IENFD, mean (rat hind paw biopsies, day 15): 19.54 number/mm
IENFD, median (rat hind paw biopsies, day 15): 19.88 number/mm
NfL, mean [1]: 22.14 pg/mL
NfL, median [1]: 22.40 pg/mL
effect on PTX-induced tactile allodynia (rat, Carba1 50 mg/kg i.p. x6 with PTX 5 mg/kg i.p. x4): prevents PTX-induced tactile allodynia
effect on PTX-induced intraepidermal nerve fiber degeneration (rat, Carba1 cotreatment with PTX): prevented PTX-induced intraepidermal nerve fiber degeneration
tactile allodynia (paw withdrawal threshold, electronic von Frey), agent alone (rat, i.p., PTX 5 mg/kg x4 or Carba1 50 mg/kg x6): not analgesic
reduction of IENFD, agent alone (rat, vs controls): had no effect
